Legend:
[1] = Radioactive metabolite profiling in pooled plasma, urine and feces; assay type: in vivo, human; conditions: for Plasma (0–144 h) % of AUC (share of total plasma radioactivity exposure) / Plasma (0–144 h) Metabolite/parent drug (%): pooled plasma 0–144 h; for Plasma (0–144 h) Metabolite/parent drug (%): relative to the parent drug; for Feces+urine % of dose: sum of feces 0–192 h and urine 0–96 h; for Feces (0–192 h) % of dose: pooled feces 0–192 h
Description: Moreover, four plasma samples at 1 h, 4 h, 48 h, and 96 h were obtained by mixing them in equal volumes. Urine samples were pooled across individuals at an equal volume to obtain one pooled sample within each time period of 0–24 h, 24–48 h, and 48–96 h. Fecal samples (0–192 h) were pooled at the same weight percentages across collection intervals for each subject. Moreover, fecal samples were pooled across individuals at an equal weight to obtain one pooled sample within each time period of 0–72 h, 72–120 h, and 120–192 h. Plasma, urine, and fecal homogenates were extracted and concentrated using organic solvents, and then the redissolved solutions were used for metabolite profile analysis. The plasma, urine, and fecal extracts were separated on HPLC columns, and the HPLC flow fractions were collected in Deepwell LumaPlateTM-96 plates at 15 s/fraction using an automatic fraction collector. The radioactivity of each fraction was quantified using a microplate detector with ARC® Convert and Evaluation software (3.0.2.379) and transformed to obtain the radioactive metabolite spectra. The radioactive metabolite spectra of each sample were integrated to acquire the peak area of each radioactive metabolite peak, the proportion of each spectral peak to the total radioactive intensity of the sample, and the proportion of the radioactivity of the major metabolites to the TRA in the corresponding blood, urine, and fecal samples. Therefore, the ratio of metabolites' concentrations to the total drug exposure (AUC) in the plasma and the ratio of each metabolite's level to the dose administered in the urine and feces were calculated. Liquid chromatography with low-energy radionuclide detection and mass spectrometry was used to identify the main metabolites in human plasma, urine, and fecal samples and to identify the possible biotransformation pathways of IBI351 in these samples.

[2] = ref [11],[19]; cited from earlier work

SMILES | Plasma (0–144 h) % of AUC (share of total plasma radioactivity exposure) [1] | Plasma (0–144 h) Metabolite/parent drug (%) [1] [%] | Feces+urine % of dose [1] | Feces (0–192 h) % of dose [1] | average time to reach Cmax [2] [h] | plasma protein binding rate [2] [%] | terminal elimination half-life [2] [h] | volume of distribution [2] [L] | grade of associated adverse events [2] | Urine (0–96 h) % of dose ([1]; pooled urine 0–96 h)
CCC(=O)N1CCN2c3c(c(=O)n(-c4c(C)ccnc4C(C)C)c4nc(-c5c(O)cccc5F)c(Cl)cc34)N(C)C(=O)C2C1 (centres unmarked) [M618] | 0.09 % of AUC | 1.98 | 0.35 % of dose |  |  |  |  |  |  | 
CC(=O)NC(CSCCC(=O)N1CCN2c3c(c(=O)n(-c4c(C)ccnc4C(C)C)c4nc(-c5c(O)cccc5F)c(Cl)cc34)N(C)C(=O)C2C1)C(=O)O (centres unmarked) [M779] | 0.05 % of AUC | 1.10 | 2.70 % of dose | 2.59 % of dose |  |  |  |  |  | 
C=C(F)C(=O)N1CCN(c2nc(OC[C@@H]3CCCN3C)nc3c2CCN(c2cccc4cccc(Cl)c24)C3)C[C@@H]1CC#N [adagrasib] |  |  |  |  | 6 | 98 | 23 | 942 |  | 
C=CC(=O)N1CCN(c2nc(=O)n(-c3c(C)ccnc3C(C)C)c3nc(-c4c(O)cccc4F)c(F)cc23)[C@@H](C)C1 [sotorasib] |  |  |  |  | 1 |  | 5 | 211 | ≥ 3 | 
Cc1ccnc(C(C)C)c1-n1c(=O)c2c(c3cc(Cl)c(-c4c(O)cccc4F)nc31)N1CCN(C(=O)CCSCC(N)C(=O)O)CC1C(=O)N2C (centres unmarked) [M737] | 6.17 % of AUC | 135.90 | 45.36 % of dose | 39.87 % of dose |  |  |  |  |  | 5.49 % of dose
Cc1ccnc(C(C)C)c1-n1c(=O)c2c(c3cc(Cl)c(-c4c(O)cccc4F)nc31)N1CCN(C(=O)C(O)CO)CC1C(=O)N2C (centres unmarked) [M650] |  | 5.95 | 2.70 % of dose | 2.47 % of dose |  |  |  |  |  | 

Source: article PMC12329412, “Study of the mass balance, biotransformation, and safety of [^14C]IBI351 in healthy Chinese subjects” (Journal of Biomedical Research, 2024)
